# Test results published in patent publication US20070213338A1, “Triazolo-Pyridazine Compounds and Derivatives Thereof Useful in the Treatment of Neuropathic Pain” (priority 2003, published 2007).
# System: nerve injury-induced tactile allodynia
# Test: Spinal Nerve Ligation Model (Chung Model)
# Assay type: in vivo, Male Sprague Dawley rats
# Conditions: rat, i.p. dosing at 30 mg/kg
# From the text: The spinal nerve ligation model of neuropathic pain was used to assess the effects of test compounds on nerve injury-induced tactile allodynia (S. H. Kim and J. M. Chung, Pain 50:355-363(1992)). Male Sprague Dawley rats (175-200 g) received unilateral tight ligation of the left L5/L6 spinal nerves distal to the dorsal root ganglion using 4-0 silk suture. Behavioral nociceptive testing occurred 7-14 days following spinal nerve ligation by placing the rats in chambers on a wire mesh. Rats were tested for tactile allodynia (decreased hindpaw withdrawal threshold to non-noxious punctate stimulation) by applying a series of calibrated von Frey filaments to the plantar aspect of the left hindpaw ipsilateral to the site of nerve injury. The mean 50% hindpaw withdrawal threshold (g.) was determined using the Dixon “up-own” non-parametric test (Chaplan et al., J. Neurosci. Methods, 53:55-63(1994)). […] Following determination of pre-drug withdrawal thresholds, rats received either an i.p. or p.o. injection of test compound. The effect of the test compound on tactile allodynia was determined over time by measuring hindpaw withdrawal thresholds 30, 60, 90, 120 min post-injection.
smiles,measurement,value
Cc1nnc2c3ccccc3c(OCc3cccc(CNCCc4ccccc4)n3)nn12 [Example 23],effect on tactile allodynia (hindpaw withdrawal threshold),65%
"FC(F)(F)c1nnc2c3ccccc3c(OCc3cccc(CNCCc4ccccc4)n3)nn12 [Example 58, Phenethyl-[6-(3-trifluoromethyl-[1,2,4]triazolo[3,4,-a]phthalazin-6-yloxymethyl)-pyridin-2-ylmethyl]-amine]",effect on tactile allodynia (hindpaw withdrawal threshold),100%
